Laboratory results reported in publication PMC10743905, “Design, Synthesis, and In Vitro and In Vivo Bioactivity Studies of Hydrazide–Hydrazones of 2,4-Dihydroxybenzoic Acid” (International Journal of Molecular Sciences, 2023).
Converted amounts (≈) assume the structure as drawn. Where two headings read alike, the source gives them in different places.

Key:
[1] = system: Micrococcus luteus ATCC 10240; assay: Broth microdilution MIC/MBC; format: cell-based; conditions: for MBC: ATCC10240; for MIC: ATCC10240, read-out: MIC
Description: (§1) In vitro antimicrobial activity assays - Methodology
(§2) The examined compounds 1 - 24 were screened in vitro for antibacterial and antifungal activities using the broth microdilution method according to procedure reported earlier by our research group and European Committee on Antimicrobial Susceptibility Testing (EUCAST) and Clinical and Laboratory Standards Institute (CLSI) guidelines against a panel of reference and clinical or saprophytic strains of microorganisms, in-cluding Gram-positive bacteria, Staphylococcus aureus ATCC 43300 (Methicillin Resistant S. aureus – MRSA), Staphylococcus aureus ATCC 29213 (Methicillin Susceptible S. aureus – MSSA), Staphylococcus epidermidis ATCC 12228, Enterococcus faecalis ATCC 29212, Micro-coccus luteus ATCC 10240, Bacillus subtilis ATCC 6633 and Bacillus cereus ATCC 10876), Gram-negative bacteria (Bordetella bronchiseptica ATCC 4617, Escherichia coli ATCC 25922, Klebsiella pneumoniae ATCC 13883, Proteus mirabilis ATCC 12453, Salmonella typhimurium ATCC 14028 and Pseudomonas aeruginosa ATCC 9027) and fungi belonging to yeasts (Can-dida albicans ATCC 10231, Candida albicans ATCC 2091, Candida parapsilosis ATCC 22019, Candida glabrata ATCC 90030 and Candida krusei ATCC 14243). The microorganisms be-longing to ATCC came from American Type Culture Collection, routinely used for the evaluation of antimicrobials. […]
(§3) Samples containing examined compounds were dissolved in dimethyl sulfoxide (DMSO). […]
(§4) Subsequently, the MIC (Minimal Inhibitory Concentration) of the compounds was ex-amined by the microdilution broth method, using their two-fold dilutions in Mueller- […]
(§5) Hinton broth or (for bacteria) and RPMI 1640 broth with MOPS (for fungi) prepared in 96-well polystyrene plates. Final concentrations of the compounds ranged from 1000 to 0.488 µg/ml. Microbial suspensions were prepared in 0.85% NaCl with an optical density of 0.5 McFarland standard. Next each bacterial or fungal suspension was added per each well containing broth and various concentrations of the examined compounds. After incuba-

[2] = system: Proteus mirabilis ATCC 12453; assay: Broth microdilution MIC/MBC; format: cell-based; conditions: ATCC12453
Description: as §1, §2, §3, §4, §5

[3] = system: Pseudomonas aeruginosa ATCC 9027; assay: Broth microdilution MIC/MBC; format: cell-based; conditions: ATCC9027
Description: as §1, §2, §3, §4, §5

[4] = system: Salmonella typhimurium ATCC 14028; assay: Broth microdilution MIC/MBC; format: cell-based; conditions: Salmonella enterica
Description: as §1, §2, §3, §4, §5

[5] = system: Staphylococcus aureus ATCC 29213; assay: Broth microdilution MIC/MBC; format: cell-based
Description: as §1, §2, §3, §4, §5

[6] = system: Staphylococcus aureus ATCC 43300; assay: Broth microdilution MIC/MBC; format: cell-based; conditions: Staphylococcus aureus ATCC 43300 (MRSA)
Description: as §1, §2, §3, §4, §5

[7] = system: Staphylococcus epidermidis ATCC 12228; assay: Broth microdilution MIC/MBC; format: cell-based; conditions: for MBC: ATCC12228; for MIC: ATCC12228, read-out: MIC
Description: as §1, §2, §3, §4, §5

[8] = system: Bacillus subtilis ATCC 6633; assay: Broth microdilution MIC/MBC; format: cell-based; conditions: for MIC: ATCC6633, read-out: MIC
Description: Detailed procedures are presented in the Supplementary Materials. […]
as §1
as §2, with “antimicrobials. All the used microbial cultures were first subcultured on nu-trient agar or Sabouraud agar at 35°C for 18-24 h or 30°C for 24-48 h for bacteria and fungi,” for “antimicrobials.”
(§6) The surface of Mueller-Hinton agar (for bacteria) and RPMI 1640 with MOPS (for fungi) were inoculated with the suspensions of bacterial or fungal species. Microbial suspensions were prepared in sterile saline with an optical density of McFarland standard scale 0.5.
(§7) Samples containing examined compounds were dissolved in dimethyl sulfoxide (DMSO).
(§8) Furthermore, bacterial and fungal suspensions were put onto Petri dishes with solid me-dia containing 2 mg/mL of the tested compounds followed incubation at 37°C for 24h and 30°C for 48h for bacteria and fungi, respectively. The inhibition of microbial growth was judged by comparison with a control culture prepared without any sample tested. Ciprof-loxacin, vancomycin, nitrofurantoin, cefuroxime, ampicillin or nystatin (Sigma) were used as a reference antibacterial or antifungal compounds, respectively.
as §4, §5

[9] = system: Bacillus cereus ATCC 10876; assay: Broth microdilution MIC/MBC; format: cell-based
Description: as §1
as §2, with “antimicrobials. All the used microbial cultures were first subcultured on nu-trient agar or Sabouraud agar at 35°C for 18-24 h or 30°C for 24-48 h for bacteria and fungi,” for “antimicrobials.”
as §6, §7, §8, §4, §5

[10] = system: Bordetella bronchiseptica ATCC 4617; assay: Broth microdilution MIC/MBC; format: cell-based; conditions: ATCC4617
Description: as §1
as §2, with “antimicrobials. All the used microbial cultures were first subcultured on nu-trient agar or Sabouraud agar at 35°C for 18-24 h or 30°C for 24-48 h for bacteria and fungi,” for “antimicrobials.”
as §6, §7, §8, §4, §5

[11] = system: Enterococcus faecalis ATCC 29212; assay: Broth microdilution MIC/MBC; format: cell-based; conditions: for MIC: ATCC29212, read-out: MIC
Description: as §1
as §2, with “antimicrobials. All the used microbial cultures were first subcultured on nu-trient agar or Sabouraud agar at 35°C for 18-24 h or 30°C for 24-48 h for bacteria and fungi,” for “antimicrobials.”
as §6, §7, §8, §4, §5

[12] = system: Escherichia coli ATCC 25922; assay: Broth microdilution MIC/MBC; format: cell-based; conditions: ATCC25922
Description: as §1
as §2, with “antimicrobials. All the used microbial cultures were first subcultured on nu-trient agar or Sabouraud agar at 35°C for 18-24 h or 30°C for 24-48 h for bacteria and fungi,” for “antimicrobials.”
as §6, §7, §8, §4, §5

[13] = system: Klebsiella pneumoniae ATCC 13883; assay: Broth microdilution MIC/MBC; format: cell-based; conditions: ATCC13883
Description: as §1
as §2, with “antimicrobials. All the used microbial cultures were first subcultured on nu-trient agar or Sabouraud agar at 35°C for 18-24 h or 30°C for 24-48 h for bacteria and fungi,” for “antimicrobials.”
as §6, §7, §8, §4, §5

[14] = system: Candida albicans ATCC 10231; assay: Broth microdilution MIC/MFC; format: cell-based; conditions: ATCC10231, read-out: MIC
Description: as §1
as §2, with “antimicrobials. All the used microbial cultures were first subcultured on nu-trient agar or Sabouraud agar at 35°C for 18-24 h or 30°C for 24-48 h for bacteria and fungi,” for “antimicrobials.”
as §6, §7, §8, §4, §5

[15] = system: Candida albicans ATCC 2091; assay: Broth microdilution MIC/MFC; format: cell-based; conditions: ATCC2091, read-out: MIC
Description: as §1
as §2, with “antimicrobials. All the used microbial cultures were first subcultured on nu-trient agar or Sabouraud agar at 35°C for 18-24 h or 30°C for 24-48 h for bacteria and fungi,” for “antimicrobials.”
as §6, §7, §8, §4, §5

[16] = system: Candida glabrata ATCC 90030; assay: Broth microdilution MIC/MFC; format: cell-based; conditions: Nakaseomyces glabratus, ATCC90030, read-out: MIC
Description: as §1
as §2, with “antimicrobials. All the used microbial cultures were first subcultured on nu-trient agar or Sabouraud agar at 35°C for 18-24 h or 30°C for 24-48 h for bacteria and fungi,” for “antimicrobials.”
as §6, §7, §8, §4, §5

[17] = system: Candida krusei ATCC 14243; assay: Broth microdilution MIC/MFC; format: cell-based; conditions: Pichia kudriavzevii, ATCC14243, read-out: MIC
Description: as §1
as §2, with “antimicrobials. All the used microbial cultures were first subcultured on nu-trient agar or Sabouraud agar at 35°C for 18-24 h or 30°C for 24-48 h for bacteria and fungi,” for “antimicrobials.”
as §6, §7, §8, §4, §5

[18] = system: Candida parapsilosis ATCC 22019; assay: Broth microdilution MIC/MFC; format: cell-based; conditions: for MIC: ATCC22019, read-out: MIC
Description: as §1
as §2, with “antimicrobials. All the used microbial cultures were first subcultured on nu-trient agar or Sabouraud agar at 35°C for 18-24 h or 30°C for 24-48 h for bacteria and fungi,” for “antimicrobials.”
as §6, §7, §8, §4, §5

## COc1ccc(/C=N/NC(=O)c2ccc(O)cc2O)cc1Cl [Compound 9, N-[(3-chloro-4-methoxyphenyl)methylidene]-2,4-dihydroxybenzohydrazide]
[1]
  MBC/MIC: 4
  MBC: 500 µg/mL (≈ 1560 µM)
  MIC: 125 µg/mL (≈ 390 µM)
[2]
  MIC: > 1000 µg/mL
[3]
  MIC: > 1000 µg/mL
[4]
  MIC: > 1000 µg/mL
[5]
  MBC/MIC: 1
[5]; ATCC29213
  MBC: 31.2 µg/mL (≈ 97.4 µM)
  MIC: 31.2 µg/mL (≈ 97.4 µM)
[6]
  MBC: 62.5 µg/mL (≈ 195 µM)
  MBC/MIC: 4
  MIC: 15.6 µg/mL (≈ 48.7 µM)
[7]
  MBC/MIC: 2
  MBC: 125 µg/mL (≈ 390 µM)
  MIC: 62.5 µg/mL (≈ 195 µM)
[8]
  MBC/MIC: 4
  MIC: 125 µg/mL (≈ 390 µM)
[8]; ATCC6633
  MBC: 500 µg/mL (≈ 1560 µM)
[9]
  MBC/MIC: 4
  MIC: 15.62 µg/mL (≈ 48.7 µM)
[9]; ATCC10876
  MBC: 62.5 µg/mL (≈ 195 µM)
[9]; ATCC10876, read-out: MIC
  MIC: 15.6 µg/mL (≈ 48.7 µM)
[10]
  MIC: > 1000 µg/mL
[11]
  MBC/MIC: 4
  MIC: 125 µg/mL (≈ 390 µM)
[11]; ATCC29212, read-out: MBC
  MBC: 500 µg/mL (≈ 1560 µM)
[12]
  MIC: > 1000 µg/mL
[13]
  MIC: > 1000 µg/mL
[14]
  MIC: > 1000 µg/mL
[15]
  MIC: > 1000 µg/mL
[16]
  MIC: > 1000 µg/mL
[17]
  MIC: > 1000 µg/mL
[18]; Lodderomyces parapsilosis
  MIC: > 1000 µg/mL
other
  melting point: 256 °C

## COc1ccc(/C=N/NC(=O)c2ccc(O)cc2O)c(Br)c1O [Compound 15, N-[(2-bromo-3-hydroxy-4-methoxyphenyl)methylidene]-2,4-dihydroxybenzohydrazide]
[1]
  MBC/MIC: > 2
  MBC: > 1000 µg/mL
  MIC: 500 µg/mL (≈ 1310 µM)
[2]
  MIC: > 1000 µg/mL
[3]
  MIC: > 1000 µg/mL
[4]
  MIC: > 1000 µg/mL
[5]; ATCC29213
  MIC: > 1000 µg/mL
[6]
  MIC: > 1000 µg/mL
[7]
  MBC/MIC: > 1
  MBC: > 1000 µg/mL
  MIC: 1000 µg/mL (≈ 2620 µM)
[8]
  MIC: > 1000 µg/mL
[9]; ATCC10876, read-out: MIC
  MIC: > 1000 µg/mL
[10]
  MIC: > 1000 µg/mL
[11]
  MIC: > 1000 µg/mL
[12]
  MIC: > 1000 µg/mL
[13]
  MIC: > 1000 µg/mL
[14]
  MIC: > 1000 µg/mL
[15]
  MIC: > 1000 µg/mL
[16]
  MIC: > 1000 µg/mL
[17]
  MIC: > 1000 µg/mL
[18]
  MFC/MIC: > 1
[18]; Lodderomyces parapsilosis, ATCC22019, read-out: MFC
  MFC: > 1000 µg/mL
[18]; Lodderomyces parapsilosis
  MIC: 1000 µg/mL (≈ 2620 µM)
other
  melting point: 244 °C
